Measured values from patent publication US20240067603A1, “CUBANYL BIGUANIDE COMPOUNDS” (REGENTS OF THE UNIVERSITY OF MINNESOTA, priority 2020, published 2024).

Experiments:
MCF-7 cells = assay: MTT cell proliferation assay, MCF-7; format: cell-based, human; conditions: Homo sapiens, MCF7; MTT, 24 hours treatment, curve fitting; read-out: IC50, proliferation of MCF-7 cells
Protocol: FIG. 8. Effects of HCB on the proliferation of MCF-7 cells. MCF-7 cells were seeded in 96 well plates and treated with drugs at varied concentration for 24 hours. MTT assay was performed to determine remaining viable cells in each well. Results are represented as mean±S.D. (n=7). IC50 was determined by curve fitting.
3-(4,5-Dimethylthiazol-2-yl)-2,5-diphenyltetrazolium Bromide (MTT) Cell Proliferation Assay. To cells grown in 96-well-tissue culture plate, 20 μl/well of MTT solution (5 mg/ml in PBS) was added. After 1-2 hours incubation at 37° C., the plate was centrifuged. Supernatant was discarded and 100 μl DMSO was added to dissolve water insoluble formazan, and the absorbance was read at 540 nm with a plate reader.

SARS-CoV-2 [1] = assay: SARS-CoV-2 antiviral assay in Vero cells; format: cell-based; conditions: Severe acute respiratory syndrome coronavirus 2, Vero
SARS-CoV-2 [2] = assay: microbe, parasite or virus in culture; format: cell-based
in vitro = conditions: African green monkey, Vero E6 cells
Vero cells = assay: Cytotoxicity assay in Vero cells
[3] = Cytotoxicity assay in 293T/ACE2 cells; conditions: human, HEK293T/17 cells expressing human ACE2
[4] = system: 293T human embryonic kidney cells over-expressing the ACE2 receptor; assay: Cytotoxicity assay in 293T/ACE2 cells; conditions: 293T/ACE2 cytotoxicity

## CC(F)(F)CCCCNC(=N)NC(=N)NCC12C3C4C5C3C1C5C42 (centres unmarked) [HCB-F2, N1-5′,5′-difluorohexyl-N5-(cuban-1-yl)methyl-biguanide]
MCF-7 cells
  IC50: 13500 nM

## N=C(NCCCCCC(F)(F)F)NC(=N)NCC12C3C4C5C3C1C5C42 (centres unmarked) [HCB-F3, N1-6′,6′,6′-trifluorohexyl-N5-(cuban-1′-yl)methyl-biguanide]
MCF-7 cells
  IC50: 13700 nM

## N=C(NCC12C3C4C5C3C1C5C42)NC(=N)NCC12C3C4C5C3C1C5C42 (centres unmarked) [DCB, Dicubanomethyl Biguanide]
MCF-7 cells
  IC50: 22100 ± 1700 nM

## CCC(CC)COC(=O)[C@H](C)N[P@](=O)(OC[C@H]1O[C@@](C#N)(c2ccc3c(N)ncnn23)[C@H](O)[C@@H]1O)Oc1ccccc1 [remdesivir]
SARS-CoV-2 [1]; read-out: antiviral IC50
  IC50: 1040 nM
SARS-CoV-2 [1]; read-out: antiviral IC90
  IC90: 2250 nM
SARS-CoV-2 [2]; Severe acute respiratory syndrome coronavirus 2, 293T/ACE2, read-out: antiviral IC50
  IC50: 20 nM
SARS-CoV-2 [2]; Severe acute respiratory syndrome coronavirus 2, 293T/ACE2, read-out: antiviral IC90
  IC90: 22 nM
In vitro
  CC50 at 48 h: > 20000 nM
Vero cells
  CC10: > 286 nM
[3]
  CC50: > 100 nM
[4]
  CC10: > 100 nM
